Measured values: patent publication US20250302869A1, “USE OF INHALED NITRIC OXIDE (INO) FOR TREATING PATIENTS WITH PULMONARY HY[…] SARCOIDOSIS (PH-SARC)” (Mallinckrodt Pharmaceuticals Ireland Limited, priority 2022, published 2025)

Columns and labels:
[1] = test system: patients with pulmonary hypertension associated with sarcoidosis (PH-SARC); assay: Acute iNO dose escalation study, right heart catheterization hemodynamics (Phase 2, Part 1); type: in vivo, human; details: for PVR change from baseline: pulsed, 10 min, baseline median 329.4; for PVR change from baseline / CO percent change from baseline / PCWP percent change from baseline / PVR percent change from baseline / mPAP percent change from baseline / CO change from baseline / PCWP change from baseline / mPAP change from baseline: median (IQR); for CO change from baseline: baseline median 5.9; for PCWP change from baseline: baseline median 13.5; for mPAP change from baseline: baseline median 37.2
Description: Patients with sarcoidosis may develop pulmonary hypertension (PH) which is associated with an impaired quality of life and limitations on activities of daily living. The Phase 2 trial, was designed to determine the safety and clinical efficacy of pulsed iNO, a potent and well-established vasodilator, on sarcoidosis-associated with PH patients, as well as to evaluate the safe and effective dose of iNO in subjects on long term oxygen therapy (LTOT) with possible or definite pulmonary hypertension associated with sarcoidosis.
Sarcoidosis patients with PH on prior right heart catherization (RHC) or on echocardiography were enrolled in a two-part open label study. Patients underwent RHC, to establish baseline hemodynamics including mean pulmonary arterial pressure (mPAP), cardiac output (CO), pulmonary wedge pressure (PCWP) with derivation of pulmonary vascular resistance (PVR).
(§1) Patients were administered acute escalating doses of pulsatile iNO via an INOpulse device starting at 30 mcg/kg ideal body weight/hr (iNO30) and increasing up to 125 mcg/kg ideal body weight/hr (iNO125) to assess the impact of each dose level on hemodynamic parameters. Patients were treated with iNO for 10 minutes per dose with a 10-minute washout between doses.
Each dose level was followed by a washout period. All hemodynamic wave forms were reviewed by a blinded hemodynamic core lab for determination of end-exhalation PAP and PCWP. After the acute vasodilator study, subjects were eligible to participate in a long-term open label extension study at the dose of iNO found to be most beneficial by the RHC measurements, as determined by the investigator.
(§2) During the Treatment Visit of Part 1 of the study, subjects were admitted to the cardiac catheterization suite/ICU/CCU and a Swan Ganz Catheter was inserted, and subjects were monitored during acute exposure to iNO at 30, 45, 75, 125 mcg/kg IBW/hr. Hemodynamic changes were monitored during this part of the study. The primary endpoint for Part 1 of the study was to assess the change in mean pulmonary artery pressure (mPAP), pulmonary capillary wedge pressure (PCWP), cardiac output (CO) and pulmonary vascular resistance (PVR) on iNO 30, 45, 75, 125 mcg/kg IBW/hr compared to baseline. The Safety Endpoint includes incidence and severity of treatment emergent adverse events (AEs), including those related to device deficiency, symptoms that may be due to rebound associated with acute withdrawal of iNO: systemic arterial oxygen desaturation, hypoxemia, bradycardia, tachycardia, systemic hypotension, shortness of breath, near-syncope, and syncope, and change in oxygen saturation and vital signs.
The changes in hemodynamics were determined for absolute change (as shown in FIGS. 2A-2D) and percent change (as shown in FIGS. 2E-2H) from baseline in PVR, mPAP, CO and PCWP. The analysis depicted illustrates the change from baseline (box & whisker plot provides median, IQR, and min/max). Statistical analysis based on Wilcoxon […] was assessed between baseline and each dose as well as each dose and each prior dose and no correction was conducted for multiplicity.

[2] = test system: patients with pulmonary hypertension associated with sarcoidosis (PH-SARC); assay: Safety and tolerability in the acute iNO dose escalation study; type: in vivo, human
Description: as §1, §2

In the case of `[N]=O` [iNO, nitric oxide], the “median mPAP reduction from baseline across the doses” value ([1]; across the doses of iNO30 to iNO125, baseline median mPAP 37.2 mmHg) is reported as 6-10%, the “patients demonstrating decreases in mPAP and PVR” value ([1]; across the doses of iNO from iNO30 to iNO125, blinded core lab, 8 patients) is reported as “all 8 patients demonstrated decreases in mPAP and PVR” and the “PCWP across all doses” value ([1]; all doses iNO30 to iNO125) is reported as “remained stable”. For the same compound, the “cardiac output (CO) across all doses” value ([1]; all doses iNO30 to iNO125) was “remained stable”, the “PVR change from baseline” value ([1]; iNO30 (30 mcg/kg IBW/hr)) was −19.2 (39.0) dyne*sec*cm-5 and the “CO percent change from baseline” value ([1]; iNO30 (30 mcg/kg IBW/hr)) was −2.5% (11.2). For the same compound, the “PCWP percent change from baseline” value ([1]; iNO30 (30 mcg/kg IBW/hr)) was −4.1% (29.1%), the “PVR percent change from baseline” value ([1]; iNO30 (30 mcg/kg IBW/hr)) was −7.0% (10.6%) and the “mPAP percent change from baseline” value ([1]; iNO30 (30 mcg/kg IBW/hr)) was −7.1% (10.0%). For the same compound, the “CO change from baseline” value ([1]; iNO30 (30 mcg/kg IBW/hr)) was −0.1 (0.6) L/min, the “PCWP change from baseline” value ([1]; iNO30 (30 mcg/kg IBW/hr)) was −1.0 (4.3) mmHg and the “mPAP change from baseline” value ([1]; iNO30 (30 mcg/kg IBW/hr)) was −2.7 (2.8) mmHg. For the same compound, the “PVR change from baseline” value ([1]; iNO45 (45 mcg/kg IBW/hr)) was −48.4 (84.6) dyne*sec*cm-5, the “CO percent change from baseline” value ([1]; iNO45 (45 mcg/kg IBW/hr)) was 1.0% (6.5%) and the “PCWP percent change from baseline” value ([1]; iNO45 (45 mcg/kg IBW/hr)) was 0.0% (20.5%). The “mPAP percent change from baseline” value ([1]; iNO45 (45 mcg/kg IBW/hr)) was −10.6% (15.8%), the “CO change from baseline” value ([1]; iNO45 (45 mcg/kg IBW/hr)) was 0.0 (0.3) L/min and the “PCWP change from baseline” value ([1]; iNO45 (45 mcg/kg IBW/hr)) was 0.0 (2.5) mmHg. For the same compound, the “mPAP change from baseline” value ([1]; iNO45 (45 mcg/kg IBW/hr)) was −4.0 (5.2) mmHg, the “median decrease of PVR from baseline” value ([1]; iNO45 dose, range −54% to +22%, baseline median PVR 329 dyne*sec*cm-5) was 20% and the “PVR change from baseline” value ([1]; iNO75 (75 mcg/kg IBW/hr)) was −68.0 (92.7) dyne*sec*cm-5. For the same compound, the “CO percent change from baseline” value ([1]; iNO75 (75 mcg/kg IBW/hr)) was 0.1% (6.1%), the “PCWP percent change from baseline” value ([1]; iNO75 (75 mcg/kg IBW/hr)) was 10.6% (29.5%) and the “PVR percent change from baseline” value ([1]; iNO75 (75 mcg/kg IBW/hr)) was −15.3% (37.7%). The “mPAP percent change from baseline” value ([1]; iNO75 (75 mcg/kg IBW/hr)) was −6.3% (13.2%), the “CO change from baseline” value ([1]; iNO75 (75 mcg/kg IBW/hr)) was 0.0 (0.4) L/min and the “PCWP change from baseline” value ([1]; iNO75 (75 mcg/kg IBW/hr)) was 1.5 (4.3) mmHg. The “mPAP change from baseline” value ([1]; iNO75 (75 mcg/kg IBW/hr)) was −2.3 (3.9) mmHg, the “PVR change from baseline” value ([1]; iNO125 (125 mcg/kg IBW/hr)) was −85.8 (67.1) dyne*sec*cm-5 and the “CO percent change from baseline” value ([1]; iNO125 (125 mcg/kg IBW/hr)) was 4.2% (14.6%). For the same compound, the “PCWP percent change from baseline” value ([1]; iNO125 (125 mcg/kg IBW/hr)) was 0.0% (30.7%), the “PVR percent change from baseline” value ([1]; iNO125 (125 mcg/kg IBW/hr)) was −28.7% (20.8%) and the “mPAP percent change from baseline” value ([1]; iNO125 (125 mcg/kg IBW/hr)) was −6.4% (11.0%). For the same compound, the “CO change from baseline” value ([1]; iNO125 (125 mcg/kg IBW/hr)) was 0.2 (0.8) L/min, the “PCWP change from baseline” value ([1]; iNO125 (125 mcg/kg IBW/hr)) was 0.0 (4.0) mmHg and the “mPAP change from baseline” value ([1]; iNO125 (125 mcg/kg IBW/hr)) was −3.0 (3.5) mmHg. For the same compound, the “median decrease of PVR from baseline” value ([1]; iNO125 dose, range −43% to −5%, p=0.02 vs. baseline and prior dose) was 29%, the tolerability ([2]; across all the doses iNO30 to iNO125) was “well-tolerated” and the “adverse events or serious adverse events related to iNO” value ([2]; acute doses iNO30 to iNO125, 8 patients) was “No adverse events or serious adverse events related to iNO were reported”.
